Results on 1 compound are retold here after publication PMC10740956, “A Multitarget Approach against Neuroinflammation: Alkyl Substituted Coumarins as Inhibitors of Enzymes Involved in Neurodegeneration” (Antioxidants, 2023).

Assay [1] deals with hCA VII (Homo sapiens, UniProt P43166). The assay can be described thus: stopped flow CO2 hydrase assay, hCA VII. Type of assay: biochemical. The settings on record: mean of 3 different assays.
Assay [2] relates to H2O2 generation in rat astrocytes pre-stimulated with LPS. The assay can be described thus: Hydrogen peroxide measurement in supernatants of LPS pre-stimulated astrocytes. The format is cell-based. To be noted: 24 h, 10 µM. The protocol:
(§1) Cells were seeded (8 × 10^3/well) and were left to adhere for 24 h in 96-well plates (Falcon®, Corning Incorporated, NY, USA). The medium was removed, incubating the cell monolayer in the presence of increasing concentrations of DEP, AAZ, and test compounds (0–150 µM) for 24–72 h. In a second set of experiments, cells were pre-incubated in the presence of 0.1 µg/mL LPS (lipopolysaccharide from E. coli, purchased from Merck, Darmstadt, Germany) for 20 h and further exposed to DEP, AAZ, and test compounds in the same experimental conditions.
At 24 h, cell supernatants were taken from the cultures used for the MTT assay. The quantitative determination of H2O2 released in supernatants was performed by means of a H2O2 colorimetric kit (cat. no. ADI-907-015, Enzo Life Sciences, Inc., Farmingdale, NY, USA). Then, 50 µL of supernatant/well was used and 100 µL of color reagent was added in each well. Next, wells were mixed and afterwards incubated for 30 min at r.t. The OD was measured following the manufacturer’s instructions.

Assay [3] has as its system CTX/TNA2 rat astrocytes pre-stimulated with LPS. The assay can be described thus: Cell metabolic activity assay (MTT), LPS pre-stimulated astrocytes. The format is cell-based. To be noted: pre-stimulated with 0.1 µg/mL LPS 20 h, then compounds 24 and 72 h.
Assay [4] addresses hCA I (Homo sapiens, UniProt P00915). Nature of the assay: stopped flow CO2 hydrase assay, hCA I. Type of assay: biochemical. The settings on record: mean of 3 different assays.
Assay [5] has as its target T1, hMAO-B (Homo sapiens, UniProt P27338).
T1 construct: purchased Sigma-Aldrich
T1 sequence (P27338 1-520): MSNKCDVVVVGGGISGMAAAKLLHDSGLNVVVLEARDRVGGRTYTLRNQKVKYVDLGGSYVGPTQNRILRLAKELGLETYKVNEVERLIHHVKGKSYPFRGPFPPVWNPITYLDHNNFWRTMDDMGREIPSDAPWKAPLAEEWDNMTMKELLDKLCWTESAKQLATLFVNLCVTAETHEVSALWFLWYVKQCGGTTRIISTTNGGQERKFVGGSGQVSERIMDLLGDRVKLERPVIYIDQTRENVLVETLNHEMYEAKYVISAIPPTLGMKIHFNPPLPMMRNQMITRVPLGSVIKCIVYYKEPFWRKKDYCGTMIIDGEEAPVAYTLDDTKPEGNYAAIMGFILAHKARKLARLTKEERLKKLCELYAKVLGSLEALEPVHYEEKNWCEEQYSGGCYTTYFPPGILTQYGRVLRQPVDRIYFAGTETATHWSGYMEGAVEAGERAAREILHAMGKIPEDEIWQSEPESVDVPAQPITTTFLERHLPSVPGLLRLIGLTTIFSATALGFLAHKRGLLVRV
The assay can be described thus: hMAO-B inhibition, recombinant enzyme, kynuramine substrate, fluorescence. Type of assay: biochemical.

The test system of assay [6] is Interleukin-6 secretion from rat astrocytes pre-stimulated with LPS. Nature of the assay: IL-6 secretion by ELISA in LPS pre-stimulated astrocytes. The settings on record: 24 h, compared to LPS alone. The format is cell-based. The protocol: as §1
The amounts (pg/mL) of interleukin-6 (IL-6) were analyzed in cell supernatants using an ELISA kit (Enzo Life Sciences Inc., Lausen, Switzerland) following the manufacturer’s instructions. Absorbance was read at 450 nm and cytokine concentration was determined. Data obtained were normalized on MTT optical densities.

The target of assay [7] is T2, AChE (electric eel) (Electrophorus electricus, UniProt O42275).
T2 construct: from tissue
T2 sequence (O42275 24-633): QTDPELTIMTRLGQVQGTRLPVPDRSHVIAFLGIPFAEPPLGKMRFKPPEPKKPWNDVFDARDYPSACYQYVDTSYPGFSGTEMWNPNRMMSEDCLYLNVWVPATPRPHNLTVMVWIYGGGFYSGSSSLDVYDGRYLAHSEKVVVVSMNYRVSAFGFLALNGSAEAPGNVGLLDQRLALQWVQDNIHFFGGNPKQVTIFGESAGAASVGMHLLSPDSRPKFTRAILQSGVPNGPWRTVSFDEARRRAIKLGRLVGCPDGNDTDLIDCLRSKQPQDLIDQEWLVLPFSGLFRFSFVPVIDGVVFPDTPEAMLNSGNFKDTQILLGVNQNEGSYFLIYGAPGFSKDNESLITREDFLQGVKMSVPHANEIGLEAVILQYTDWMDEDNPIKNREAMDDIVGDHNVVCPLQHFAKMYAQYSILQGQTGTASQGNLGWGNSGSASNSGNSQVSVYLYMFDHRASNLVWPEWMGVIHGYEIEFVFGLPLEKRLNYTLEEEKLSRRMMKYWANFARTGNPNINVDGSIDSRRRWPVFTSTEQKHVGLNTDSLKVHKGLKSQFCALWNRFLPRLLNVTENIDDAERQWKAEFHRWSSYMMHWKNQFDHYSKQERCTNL
The assay can be described thus: biochemical. The settings on record: read-out: inhibition of AChE at 100 µM, 100 µM.

Assay [8] addresses hCA IX (Homo sapiens, UniProt Q16790). The assay can be described thus: stopped flow CO2 hydrase assay, hCA IX. The settings on record: mean of 3 different assays. The format is biochemical.
Assay [9] deals with hCA XII (Homo sapiens, UniProt O43570). The assay can be described thus: stopped flow CO2 hydrase assay, hCA XII. Type of assay: biochemical. The settings on record: mean of 3 different assays.
hCA XII, sequence (O43570 25-354): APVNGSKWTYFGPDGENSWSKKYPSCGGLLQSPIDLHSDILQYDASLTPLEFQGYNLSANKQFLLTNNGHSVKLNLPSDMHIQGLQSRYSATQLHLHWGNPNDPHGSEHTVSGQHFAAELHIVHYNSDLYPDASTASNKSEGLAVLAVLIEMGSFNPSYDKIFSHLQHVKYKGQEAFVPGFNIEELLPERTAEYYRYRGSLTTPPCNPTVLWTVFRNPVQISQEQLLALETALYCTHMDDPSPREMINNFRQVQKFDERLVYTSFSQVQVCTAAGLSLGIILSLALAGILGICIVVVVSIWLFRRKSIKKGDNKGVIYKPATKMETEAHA
Assay [10] deals with T3, hMAO-A (Homo sapiens, UniProt P21397).
T3 construct: purchased Sigma-Aldrich
T3 sequence (P21397 1-527): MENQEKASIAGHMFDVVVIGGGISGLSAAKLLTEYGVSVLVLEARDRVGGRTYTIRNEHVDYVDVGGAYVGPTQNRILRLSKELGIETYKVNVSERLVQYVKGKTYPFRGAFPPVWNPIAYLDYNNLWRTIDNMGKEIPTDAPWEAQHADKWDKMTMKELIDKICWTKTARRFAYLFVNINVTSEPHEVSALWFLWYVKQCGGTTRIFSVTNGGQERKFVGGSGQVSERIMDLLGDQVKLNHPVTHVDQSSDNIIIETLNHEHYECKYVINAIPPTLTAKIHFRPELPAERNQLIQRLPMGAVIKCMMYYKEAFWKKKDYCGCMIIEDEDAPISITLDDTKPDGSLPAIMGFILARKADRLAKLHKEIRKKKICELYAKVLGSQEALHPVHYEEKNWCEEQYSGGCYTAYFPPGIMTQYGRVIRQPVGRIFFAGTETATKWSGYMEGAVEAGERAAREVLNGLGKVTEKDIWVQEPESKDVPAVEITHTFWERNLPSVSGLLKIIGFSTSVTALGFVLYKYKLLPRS
Nature of the assay: hMAO-A inhibition, recombinant enzyme, kynuramine substrate, fluorescence. The format is biochemical.

The target of assay [11] is T4, BuChE (equine serum) (Equus caballus, UniProt P81908).
T4 construct: from tissue; host or cells: equine serum
T4 sequence (P81908 whole entry): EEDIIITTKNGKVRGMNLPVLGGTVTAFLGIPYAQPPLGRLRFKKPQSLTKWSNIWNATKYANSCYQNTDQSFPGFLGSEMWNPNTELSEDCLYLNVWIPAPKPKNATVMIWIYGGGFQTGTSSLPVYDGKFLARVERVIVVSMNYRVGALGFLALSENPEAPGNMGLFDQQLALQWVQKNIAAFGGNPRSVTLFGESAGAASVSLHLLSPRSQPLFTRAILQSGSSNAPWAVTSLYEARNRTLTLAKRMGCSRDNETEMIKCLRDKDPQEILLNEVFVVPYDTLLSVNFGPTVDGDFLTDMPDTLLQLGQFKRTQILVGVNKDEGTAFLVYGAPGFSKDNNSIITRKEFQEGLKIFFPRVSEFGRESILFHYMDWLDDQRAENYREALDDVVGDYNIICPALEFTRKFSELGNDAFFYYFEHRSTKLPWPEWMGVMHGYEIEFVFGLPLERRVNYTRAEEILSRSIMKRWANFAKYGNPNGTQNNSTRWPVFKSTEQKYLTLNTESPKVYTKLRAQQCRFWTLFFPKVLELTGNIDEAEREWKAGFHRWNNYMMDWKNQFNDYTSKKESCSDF
Nature of the assay: biochemical. The format is biochemical. The settings on record: mean ± SD of triplicate determinations.

Assay [12] has as its target hCA II (Homo sapiens, UniProt P00918). The assay can be described thus: stopped flow CO2 hydrase assay, hCA II. The settings on record: mean of 3 different assays. The format is biochemical.
Where [13] appears, read: mean ± SD of triplicate determinations.

Where only a bound is given, the exact number is not on record here.

hCA I, sequence (P00915 whole entry): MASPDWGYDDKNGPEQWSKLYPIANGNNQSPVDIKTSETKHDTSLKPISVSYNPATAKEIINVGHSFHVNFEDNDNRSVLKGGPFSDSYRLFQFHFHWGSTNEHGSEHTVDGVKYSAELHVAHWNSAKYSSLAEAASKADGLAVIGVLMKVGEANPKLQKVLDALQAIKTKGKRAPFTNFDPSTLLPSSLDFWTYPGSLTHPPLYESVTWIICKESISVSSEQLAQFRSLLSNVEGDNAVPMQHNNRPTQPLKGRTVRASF
hCA VII, sequence (P43166 whole entry): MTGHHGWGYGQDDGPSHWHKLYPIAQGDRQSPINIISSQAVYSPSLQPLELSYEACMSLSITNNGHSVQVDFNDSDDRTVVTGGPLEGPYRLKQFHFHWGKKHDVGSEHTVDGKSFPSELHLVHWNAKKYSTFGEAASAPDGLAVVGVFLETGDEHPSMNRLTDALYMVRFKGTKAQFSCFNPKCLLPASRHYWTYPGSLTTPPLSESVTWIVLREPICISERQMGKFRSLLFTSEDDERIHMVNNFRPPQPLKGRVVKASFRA

Consider `C#CCCCCOc1ccc2ccc(=O)oc2c1` [Compound 9, 7-(Hex-5-yn-1-yloxy)-2H-chromen-2-one], for which the inhibition constant Ki is 77.1 nM in assay [1]; more than 10000 nM in assay [4]; 2.3 nM in [5] (Lineweaver-Burk plots); 31.3 nM in assay [8]; 5.9 nM in assay [9]; 146 nM in assay [10] (Lineweaver-Burk plots). In assay [12], the inhibition constant (Ki) was more than 10000 nM. Moreover, the H2O2 generation result in [2] is “restoring it to the untreated control levels”. In assay [3], the “cell metabolic activity (MTT) versus LPS only control” value is “able to counteract the LPS-induced increase in cell metabolic activity”. For the same compound, in [5] (IC50 hMAO-A/IC50 hMAO-B), the “SI (selectivity index for hMAO-B over hMAO-A)” value worked out at 92.8. Besides, the hMAO-B inhibition mechanism entry in [5] (Lineweaver-Burk plots) is recorded as “competitive inhibition mechanism”. The figures for the IC50 in assay [5] (setting [13]), in [10] (setting [13]) and in assay [11] were 7 ± 0.35 nM, 650 ± 27 nM and 51000 ± 4000 nM, respectively. Also, in assay [6], the IL-6 secretion result was “decreases the amount of the cytokine at 0.01 and 10 µM”. The inhibition at 100 µM in [7] was determined as 50%. Besides, the hMAO-A inhibition mechanism entry in [10] (Lineweaver-Burk plots) is listed as “competitive inhibition mechanism”.
